US20260166128A1, “HUMAN AMYLIN ANALOG, AND DERIVATIVE THEREOF AND USE THEREOF” (priority 2022, published 2026)
Where two headings read alike, the source gives them in different places. Numbered stars: 1 amine (or outer) side, 2 acyl side, 3 side chain; on linkers, the order of the positions; unused ones are H or OH. Bridge positions count the residues as written; N and C are the ends. Square brackets hold non-standard residues; d marks the D form. Side chains are listed from the residue outwards. Peptide text beside a SMILES is read from it. * marks the point of attachment. C20 diacid = O=C(O)CCCCCCCCCCCCCCCCCCC(=O)*; C18 diacid = O=C(O)CCCCCCCCCCCCCCCCC(=O)*; γGlu = O=C(O)[C@H](CCC(=O)[*:2])N[*:1]; Hyp = O=C(O)[C@@H]1C[C@@H](O)CN1; AEEA = NCCOCCOCC(=O)O

Target: T1, human amylin receptor (Homo sapiens, UniProt O60896+P30988)
T1 construct: host or cells: CHO-K1/Ga15/AMY3 cells, further stably transfected with a CRE-luciferase plasmid
T1 sequence (P30988 25-474): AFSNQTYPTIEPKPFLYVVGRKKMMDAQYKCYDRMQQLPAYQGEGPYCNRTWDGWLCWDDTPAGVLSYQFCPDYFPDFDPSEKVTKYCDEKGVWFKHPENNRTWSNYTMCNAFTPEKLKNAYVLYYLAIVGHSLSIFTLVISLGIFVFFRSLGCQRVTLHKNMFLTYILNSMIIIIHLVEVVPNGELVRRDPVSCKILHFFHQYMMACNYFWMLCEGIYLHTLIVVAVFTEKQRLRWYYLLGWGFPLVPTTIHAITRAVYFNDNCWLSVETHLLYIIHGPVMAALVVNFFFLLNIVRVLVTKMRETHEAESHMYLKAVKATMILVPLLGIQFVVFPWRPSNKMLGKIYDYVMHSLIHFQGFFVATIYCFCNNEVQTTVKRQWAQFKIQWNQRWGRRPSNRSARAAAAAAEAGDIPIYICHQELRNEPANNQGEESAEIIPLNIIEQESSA
T1 sequence (O60896 24-148 partner): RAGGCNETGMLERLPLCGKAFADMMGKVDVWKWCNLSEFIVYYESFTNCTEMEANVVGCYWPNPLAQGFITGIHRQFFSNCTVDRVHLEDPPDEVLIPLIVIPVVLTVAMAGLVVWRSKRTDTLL
Assay: Luciferase assay of amylin derivatives in amylin receptor/CRE-luc CHO cell line
Assay type: cell-based
Details: 24 hours incubation, F12 medium containing 10% FBS

[1] = CHO-K1/Ga15/AMY3 CRE-luc cells, read-out: EC50

Procedure: The experiment was intended to detect the activity or efficacy of the amylin derivatives on a human amylin receptor in vitro by luciferase assay.
50 μL of growth medium (F12 medium containing 10% FBS) was added into each well of a white 96-well plate, and the stably transfected amylin/CRE-lue CHO cells were inoculated into the white 96-well plate at a density of about 20,000 cells/well for activity determination.

| SMILES | EC50 [1] | EC50 (EC50, CHO-K1/Ga15/AMY3 CRE-luc cells) |
| --- | --- | --- |
| CC[C@H](C)[C@H](NC(=O)[C@@H]1CCCN1C(=O)CNC(=O)[C@H](CC(C)C)NC(=O)[C@H](CC(N)=O)NC(=O)[C@H](CC(N)=O)NC(=O)[C@H](CO)NC(=O)[C@H](CCCCNC(=O)CC[C@H](NC(=O)CCCCCCCCCCCCCCCCC(=O)O)C(=O)O)NC(=O)[C@H](Cc1c[nH]cn1)NC(=O)[C@H](CCCNC(=N)N)NC(=O)[C@H](CC(C)C)NC(=O)[C@H](Cc1ccccc1)NC(=O)[C@H](CC(=O)O)NC(=O)[C@H](C)NC(=O)[C@H](CC(C)C)NC(=O)[C@H](CCCNC(=N)N)NC(=O)[C@H](CCC(N)=O)NC(=O)[C@@H](NC(=O)[C@H](C)NC(=O)[C@@H]1CSSC[C@H](NC(=O)[C@@H](N)CCCNC(=N)N)C(=O)N[C@@H](CC(N)=O)C(=O)N[C@@H]([C@@H](C)O)C(=O)N[C@@H](C)C(=O)N[C@@H]([C@@H](C)O)C(=O)N1)[C@@H](C)O)C(=O)N[C@@H](CC(C)C)C(=O)N1CCC[C@H]1C(=O)N1CCC[C@H]1C(=O)N[C@H](C(=O)N[C@@H](CC(N)=O)C(=O)N[C@H](C(=O)NCC(=O)N[C@@H](CO)C(=O)N[C@@H](CC(N)=O)C(=O)N[C@H](C(=O)N1C[C@H](O)C[C@H]1C(N)=O)[C@@H](C)O)C(C)C)[C@@H](C)O [PD100] (H-RCNTATCATQRLADFLRHK([γGlu-C18 diacid])SNNLGPILPPTNVGSNT[Hyp]-NH2; disulfide 2-7) | 0.06 nM |  |
| CC[C@H](C)[C@H](NC(=O)[C@@H]1CCCN1C(=O)CNC(=O)[C@H](CC(C)C)NC(=O)[C@H](CC(N)=O)NC(=O)[C@H](CC(N)=O)NC(=O)[C@H](CO)NC(=O)[C@H](CCCCNC(=O)COCCOCCNC(=O)COCCOCCNC(=O)CC[C@H](NC(=O)CCCCCCCCCCCCCCCCC(=O)O)C(=O)O)NC(=O)[C@H](Cc1c[nH]cn1)NC(=O)[C@H](CCCNC(=N)N)NC(=O)[C@H](CC(C)C)NC(=O)[C@H](Cc1ccccc1)NC(=O)[C@H](CC(=O)O)NC(=O)[C@H](C)NC(=O)[C@H](CC(C)C)NC(=O)[C@H](CCCNC(=N)N)NC(=O)[C@H](CCC(N)=O)NC(=O)[C@@H](NC(=O)[C@H](C)NC(=O)[C@@H]1CSSC[C@H](NC(=O)[C@@H](N)CCCNC(=N)N)C(=O)N[C@@H](CC(N)=O)C(=O)N[C@@H]([C@@H](C)O)C(=O)N[C@@H](C)C(=O)N[C@@H]([C@@H](C)O)C(=O)N1)[C@@H](C)O)C(=O)N[C@@H](CC(C)C)C(=O)N1CCC[C@H]1C(=O)N1CCC[C@H]1C(=O)N[C@H](C(=O)N[C@@H](CC(N)=O)C(=O)N[C@H](C(=O)NCC(=O)N[C@@H](CO)C(=O)N[C@@H](CC(N)=O)C(=O)N[C@H](C(=O)N1C[C@H](O)C[C@H]1C(N)=O)[C@@H](C)O)C(C)C)[C@@H](C)O [PD101] (H-RCNTATCATQRLADFLRHK([AEEA-AEEA-γGlu-C18 diacid])SNNLGPILPPTNVGSNT[Hyp]-NH2; disulfide 2-7) |  | 0.012 nM |
| CC[C@H](C)[C@H](NC(=O)[C@H](CCCCNC(=O)CC[C@H](NC(=O)CCCCCCCCCCCCCCCCCCC(=O)O)C(=O)O)NC(=O)CNC(=O)[C@H](CC(C)C)NC(=O)[C@H](CC(N)=O)NC(=O)[C@H](CC(N)=O)NC(=O)[C@H](CO)NC(=O)[C@H](CO)NC(=O)[C@H](Cc1c[nH]cn1)NC(=O)[C@H](CCCNC(=N)N)NC(=O)[C@H](CC(C)C)NC(=O)[C@H](Cc1ccccc1)NC(=O)[C@H](CC(=O)O)NC(=O)[C@H](C)NC(=O)[C@H](CC(C)C)NC(=O)[C@H](CCCNC(=N)N)NC(=O)[C@H](CCC(N)=O)NC(=O)[C@@H](NC(=O)[C@H](C)NC(=O)[C@@H]1CSSC[C@H](NC(=O)[C@@H](N)CCCNC(=N)N)C(=O)N[C@@H](CC(N)=O)C(=O)N[C@@H]([C@@H](C)O)C(=O)N[C@@H](C)C(=O)N[C@@H]([C@@H](C)O)C(=O)N1)[C@@H](C)O)C(=O)N[C@@H](CC(C)C)C(=O)N1CCC[C@H]1C(=O)N1CCC[C@H]1C(=O)N[C@H](C(=O)N[C@@H](CC(N)=O)C(=O)N[C@H](C(=O)NCC(=O)N[C@@H](CO)C(=O)N[C@@H](CC(N)=O)C(=O)N[C@H](C(=O)N1C[C@H](O)C[C@H]1C(N)=O)[C@@H](C)O)C(C)C)[C@@H](C)O [PD102] (H-RCNTATCATQRLADFLRHSSNNLGK([γGlu-C20 diacid])ILPPTNVGSNT[Hyp]-NH2; disulfide 2-7) | 0.033 nM |  |
| CC[C@H](C)[C@H](NC(=O)[C@H](CCCCNC(=O)CC[C@H](NC(=O)CCCCCCCCCCCCCCCCC(=O)O)C(=O)O)NC(=O)CNC(=O)[C@H](CC(C)C)NC(=O)[C@H](CC(N)=O)NC(=O)[C@H](CC(N)=O)NC(=O)[C@H](CO)NC(=O)[C@H](CO)NC(=O)[C@H](Cc1c[nH]cn1)NC(=O)[C@H](CCCNC(=N)N)NC(=O)[C@H](CC(C)C)NC(=O)[C@H](Cc1ccccc1)NC(=O)[C@H](CC(=O)O)NC(=O)[C@H](C)NC(=O)[C@H](CC(C)C)NC(=O)[C@H](CCCNC(=N)N)NC(=O)[C@H](CCC(N)=O)NC(=O)[C@@H](NC(=O)[C@H](C)NC(=O)[C@@H]1CSSC[C@H](NC(=O)[C@@H](N)CCCNC(=N)N)C(=O)N[C@@H](CC(N)=O)C(=O)N[C@@H]([C@@H](C)O)C(=O)N[C@@H](C)C(=O)N[C@@H]([C@@H](C)O)C(=O)N1)[C@@H](C)O)C(=O)N[C@@H](CC(C)C)C(=O)N1CCC[C@H]1C(=O)N1CCC[C@H]1C(=O)N[C@H](C(=O)N[C@@H](CC(N)=O)C(=O)N[C@H](C(=O)NCC(=O)N[C@@H](CO)C(=O)N[C@@H](CC(N)=O)C(=O)N[C@H](C(=O)N1C[C@H](O)C[C@H]1C(N)=O)[C@@H](C)O)C(C)C)[C@@H](C)O [PD104] (H-RCNTATCATQRLADFLRHSSNNLGK([γGlu-C18 diacid])ILPPTNVGSNT[Hyp]-NH2; disulfide 2-7) | 0.011 nM |  |
| CC[C@H](C)[C@H](NC(=O)[C@H](CCCCNC(=O)COCCOCCNC(=O)COCCOCCNC(=O)CC[C@H](NC(=O)CCCCCCCCCCCCCCCCC(=O)O)C(=O)O)NC(=O)CNC(=O)[C@H](CC(C)C)NC(=O)[C@H](CC(N)=O)NC(=O)[C@H](CC(N)=O)NC(=O)[C@H](CO)NC(=O)[C@H](CO)NC(=O)[C@H](Cc1c[nH]cn1)NC(=O)[C@H](CCCNC(=N)N)NC(=O)[C@H](CC(C)C)NC(=O)[C@H](Cc1ccccc1)NC(=O)[C@H](CC(=O)O)NC(=O)[C@H](C)NC(=O)[C@H](CC(C)C)NC(=O)[C@H](CCCNC(=N)N)NC(=O)[C@H](CCC(N)=O)NC(=O)[C@@H](NC(=O)[C@H](C)NC(=O)[C@@H]1CSSC[C@H](NC(=O)[C@@H](N)CCCNC(=N)N)C(=O)N[C@@H](CC(N)=O)C(=O)N[C@@H]([C@@H](C)O)C(=O)N[C@@H](C)C(=O)N[C@@H]([C@@H](C)O)C(=O)N1)[C@@H](C)O)C(=O)N[C@@H](CC(C)C)C(=O)N1CCC[C@H]1C(=O)N1CCC[C@H]1C(=O)N[C@H](C(=O)N[C@@H](CC(N)=O)C(=O)N[C@H](C(=O)NCC(=O)N[C@@H](CO)C(=O)N[C@@H](CC(N)=O)C(=O)N[C@H](C(=O)N1C[C@H](O)C[C@H]1C(N)=O)[C@@H](C)O)C(C)C)[C@@H](C)O [PD105] (H-RCNTATCATQRLADFLRHSSNNLGK([AEEA-AEEA-γGlu-C18 diacid])ILPPTNVGSNT[Hyp]-NH2; disulfide 2-7) | 0.033 nM |  |
